Data set [1] deals with T1, NLRP3 (Homo sapiens, UniProt Q96P20). The data set is described as follows: THP-1 cells pyroptosis assay (LPS primed, nigericin stimulated, resazurin readout). Set-up: endogenous in cells; host or cells: THP-1 cells (ATCC TIB-202). It counts as cell-based. As to conditions: THP-1 pyroptosis Assay IC50, THP-1 cells, 1 μg/ml LPS, 5 μM nigericin, 3 h compound pre-incubation. The method, then: Therefore, it is anticipated that inhibitors of NLRP3 will block pyroptosis, as well as the release of pro-inflammatory cytokines (e.g. IL-1β) from the cell.
THP-1 Cells: Culture and Preparation
The cells were routinely passaged and grown to confluency (~10^6cells/ml). On the day of the experiment, THP-1 cells were harvested and resuspended into RPMI medium (without FBS). […] To this diluted cell solution was added LPS (Sigma #L4524) to give a 1 μg/ml Final Assay Concentration (FAC). 40 μl of the final preparation was aliquoted into each well of a 96-well plate. The plate thus prepared was used for compound screening.
THP-1 Cells Pyroptosis Assay
The following method step-by-step assay was followed for compound screening.
(§1) Incubate for 3 hours at 37 °C, 5% CO2
Add 5 μl nigericin (Sigma #N7143) (FAC 5 μM) to all wells
(§2) Incubate for 1 hr at 37 °C, 5% CO2
At the end of the incubation period, spin plates at 300×g for 3 mins and remove supernatant
Then add 50 μl of resazurin (Sigma #R7017) (FAC 100 μM resazurin in RPMI medium without FBS) and incubate plates for a further 1-2 hours at 37 °C and 5% CO2
(§3) IC50 data is fitted to a non-linear regression equation (log inhibitor vs response-variable slope 4-parameters)

The target in data set [2] is T1, NLRP3. Briefly: Human whole blood IL-1β release assay (LPS, nigericin; AlphaLISA). It counts as cell-based. Also on record: Human whole blood in Li-heparin tubes was obtained from healthy donors from a volunteer donor panel; from tissue; host or cells: human whole blood from healthy volunteer donors. The note with it: 1 μg/ml LPS, 10 μM nigericin, 3 h compound pre-incubation. How it is done:
Human Whole Blood IL-1β Release Assay
For systemic delivery, the ability to inhibit NLRP3 when the compounds are present within the bloodstream is of great importance. For this reason, the NLRP3 inhibitory activity of a number of compounds in human whole blood was investigated in accordance with the following protocol.
Human whole blood in Li-heparin tubes was obtained from healthy donors from a volunteer donor panel.
as §1
Add 10 μl nigericin (Sigma #N7143) (10 μM FAC) to all wells
as §2
At the end of the incubation period, spin plates at 300×g for 5 mins to pellet cells and remove 20 μl of supernatant and add to 96-well v-bottom plates for IL-1β analysis (note: these plates containing the supernatants can be stored at −80 °C to be analysed at a later date)
IL-1β was measured according to the manufacturer protocol (Perkin Elmer-AlphaLisa IL-1 Kit AL220F-5000)
as §3

Data set [3] deals with T2, human ether-i-go-go-related gene (hERG) cardiac potassium channel (Homo sapiens, UniProt Q12809).
T2 construct: whole-cell automated patch clamp, SynchroPatch 384, 35-37 °C
The data set is described as follows: hERG screening assay (automated patch clamp, CHO crelox hERG cells). It counts as cell-based. As to conditions: SynchroPatch 384, 35-37 °C, 0.1 Hz, read-out: hERG inhibition IC20. The source says: In the drug development process of small molecules, one of the most frequent adverse side effects, leading to the failure of drugs, is the cardiac arrhythmias. Such failure is often related to the capacity of the drug to inhibit the human ether-i-go-go-related gene (hERG) cardiac potassium channel. Having no or low inhibition of the hERG cardiac potassium channel is therefore considered as beneficial.
The CHO crelox hERG cell line (ATCC reference Nr. PTA-6812, female Chinese hamster cells) was generated and validated at Roche. Ready-to-use frozen instant CHO-hERG cells were cryopreserved at Evotec (Germany) and used directly in the experiments.
The extracellular solution contains (in mM): NaCl 150; KCl 4; CaCl2 1; MgCl2 1; HEPES 10; pH 7.2-7.4 with NaOH, osmolarity 290-330 mOsm. […]
The effects of a compound on hERG K+-currents parameters will be evaluated at 2 concentrations in at least 4 cells.
The hERG test is performed using automated patch clamp system SynchroPatch® 384 (Nanion Technologies GmbH, Germany). K+ currents are measured with the patch-voltage-clamp technique in the whole-cell configuration at 35-37 °C. […]
The amplitudes of IKhERG were recorded in each concentration of drug and they were compared to the vehicle control values (taken as 100%) to define fractional blocks. […]

The next data set has as its system NLRC4. As to conditions: cited from earlier work.
The test system of another data set is NLRP1. The note with it: cited from earlier work.
For data set [4], the target named is T1, NLRP3. Also on record: THP-1 cells (ATCC #TIB-202) were grown in RPMI; endogenous in cells; host or cells: THP-1 cells (ATCC TIB-202). The note with it: cited from earlier work.
Another data set deals with CAPS. The note with it: biologic agents that target IL-1; cited from earlier work.

T1 sequence (Q96P20 whole entry): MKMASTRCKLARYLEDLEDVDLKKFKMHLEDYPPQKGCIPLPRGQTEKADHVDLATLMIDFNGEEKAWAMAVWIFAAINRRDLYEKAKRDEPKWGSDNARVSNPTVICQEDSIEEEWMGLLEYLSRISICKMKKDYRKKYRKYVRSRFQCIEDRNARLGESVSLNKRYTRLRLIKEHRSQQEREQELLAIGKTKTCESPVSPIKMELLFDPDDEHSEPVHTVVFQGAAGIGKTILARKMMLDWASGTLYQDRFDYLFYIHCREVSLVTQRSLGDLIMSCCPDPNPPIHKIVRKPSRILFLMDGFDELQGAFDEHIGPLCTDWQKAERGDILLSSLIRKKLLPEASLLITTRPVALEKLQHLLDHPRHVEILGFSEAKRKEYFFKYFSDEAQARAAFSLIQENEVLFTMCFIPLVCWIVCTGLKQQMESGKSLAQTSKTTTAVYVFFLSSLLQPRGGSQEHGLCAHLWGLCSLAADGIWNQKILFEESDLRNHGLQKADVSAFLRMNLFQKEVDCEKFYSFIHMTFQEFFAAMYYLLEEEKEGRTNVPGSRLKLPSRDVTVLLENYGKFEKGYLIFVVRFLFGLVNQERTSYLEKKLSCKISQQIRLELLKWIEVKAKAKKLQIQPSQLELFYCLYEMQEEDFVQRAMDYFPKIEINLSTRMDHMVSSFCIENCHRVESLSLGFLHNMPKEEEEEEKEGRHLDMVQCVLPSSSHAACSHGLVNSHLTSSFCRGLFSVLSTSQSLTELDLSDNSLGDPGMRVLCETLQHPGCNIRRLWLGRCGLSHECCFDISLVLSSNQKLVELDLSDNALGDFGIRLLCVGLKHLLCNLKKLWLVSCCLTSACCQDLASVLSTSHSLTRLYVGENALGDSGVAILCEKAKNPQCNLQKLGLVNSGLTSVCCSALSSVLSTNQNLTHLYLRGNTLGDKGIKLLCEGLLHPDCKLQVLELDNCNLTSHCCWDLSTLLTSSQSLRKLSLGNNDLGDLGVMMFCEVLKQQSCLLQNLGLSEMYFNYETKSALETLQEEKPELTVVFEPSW
T2 sequence (Q12809 whole entry): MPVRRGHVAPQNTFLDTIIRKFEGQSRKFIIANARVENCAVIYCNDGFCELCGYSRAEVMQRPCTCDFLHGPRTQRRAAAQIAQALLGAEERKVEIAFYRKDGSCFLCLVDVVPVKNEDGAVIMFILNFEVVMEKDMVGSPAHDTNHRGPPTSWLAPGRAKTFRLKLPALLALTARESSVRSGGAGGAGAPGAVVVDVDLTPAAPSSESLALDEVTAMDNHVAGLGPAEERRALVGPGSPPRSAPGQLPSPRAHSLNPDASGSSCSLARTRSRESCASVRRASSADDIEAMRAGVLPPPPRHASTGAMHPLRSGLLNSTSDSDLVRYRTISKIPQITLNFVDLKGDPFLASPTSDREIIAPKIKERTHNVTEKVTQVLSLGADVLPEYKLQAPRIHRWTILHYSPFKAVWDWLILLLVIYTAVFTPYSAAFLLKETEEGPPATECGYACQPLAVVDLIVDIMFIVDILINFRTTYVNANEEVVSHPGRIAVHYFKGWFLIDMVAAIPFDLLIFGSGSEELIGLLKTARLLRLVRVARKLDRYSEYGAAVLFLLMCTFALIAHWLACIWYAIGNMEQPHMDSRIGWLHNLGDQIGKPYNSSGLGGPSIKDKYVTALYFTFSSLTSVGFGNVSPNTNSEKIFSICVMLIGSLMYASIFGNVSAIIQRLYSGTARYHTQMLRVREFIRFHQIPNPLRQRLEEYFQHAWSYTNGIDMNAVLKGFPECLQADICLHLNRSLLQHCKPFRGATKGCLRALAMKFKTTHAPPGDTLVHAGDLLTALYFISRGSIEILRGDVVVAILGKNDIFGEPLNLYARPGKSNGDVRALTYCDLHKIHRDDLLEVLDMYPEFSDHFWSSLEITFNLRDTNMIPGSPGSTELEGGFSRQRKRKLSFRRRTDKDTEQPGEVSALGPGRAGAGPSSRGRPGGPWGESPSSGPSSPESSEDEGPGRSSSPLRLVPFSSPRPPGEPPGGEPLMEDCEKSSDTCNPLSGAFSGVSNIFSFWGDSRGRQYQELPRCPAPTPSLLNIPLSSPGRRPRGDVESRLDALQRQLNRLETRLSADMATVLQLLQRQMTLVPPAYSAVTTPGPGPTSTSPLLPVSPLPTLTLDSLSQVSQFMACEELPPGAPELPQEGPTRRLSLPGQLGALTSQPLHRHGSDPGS

As for `Oc1c(-c2nnc(N[C@H]3CC[C@H](O)CC3)c3cnccc23)ccc2c1CCO2` [Example 9, trans-5-[4-[(4-Hydroxycyclohexyl)amino]pyrido[3,4-d]pyridazin-1-yl]-2,3-dihydrobenzofuran-4-ol], the results for the IC50 against NLRP3 [1] and against NLRP3 [2] were 56 nM and 43 nM, respectively.

Regarding `Oc1c(-c2nnc(N[C@H]3CCCC[C@@H]3O)c3cnccc23)ccc2c1CCO2` (relative stereo) [Example 2B, 5-[4-[[rel-(1S,2S)-2-Hydroxycyclohexyl]amino]pyrido[3,4-d]pyridazin-1-yl]-2,3-dihydrobenzofuran-4-ol], in data set [3], the IC20 was above 10000 nM. With `COc1ccc(Cl)cc1C(=O)NCCc1ccc(S(=O)(=O)NC(=O)NC2CCCCC2)cc1` [Glyburide], in the data set on NLRC4, the “inhibition of IL-1β production in response to the activation of NLRC4” value is reported as “not NLRC4”. For the same compound, in the data set with NLRP1, the “inhibition of IL-1β production in response to the activation of NLRP1” value is recorded as “not NLRC4 or NLRP1”. Consider `Oc1c(-c2nnc(NCC3CCCO3)c3cnccc23)ccc2c1CCO2` (single isomer, unassigned) [Example 6A], for which the half-maximal inhibitory concentration (IC50) on NLRP3 [1] came out at 58 nM; at NLRP3 [2], 47 nM. On to `Fc1c[nH]c2cc(-c3nnc(NCC4CCOC4)c4cnccc34)ccc12` (single isomer, unassigned) [Example 4A], for which inhibition against NLRP3 [1] was half-maximal at 134 nM (IC50). That is a sub-micromolar value.

For the compound `Oc1c(-c2nnc(NCC3CCOC3)c3cnccc23)ccc2c1CCO2` (single isomer, unassigned) [Example 5B], the IC50 on NLRP3 [1] is 64 nM; against NLRP3 [2], 36 nM. For the compound `Oc1c(-c2nnc(N[C@H]3CC[C@@H](O)CC3)c3cnccc23)ccc2c1CCO2` [Example 11, cis-5-[4-[(4-Hydroxycyclohexyl)amino]pyrido[3,4-d]pyridazin-1-yl]-2,3-dihydrobenzofuran-4-ol], the results for the IC50 at NLRP3 [1] and on NLRP3 [2] were 57 nM and 51 nM, respectively. For `Oc1c(-c2nnc(NCC3CCCO3)c3cnccc23)ccc2c1CCO2` (single isomer, unassigned) [Example 6B] the same measures were 63 nM and 59 nM. The matching figures for `Oc1c(-c2nnc(NCC3CCOC3)c3cnccc23)ccc2c1CCO2` (single isomer, unassigned) [Example 5A]: 29 nM and 32 nM.

In the case of `Oc1c(-c2nnc(N[C@@H]3CCOC[C@@H]3O)c3cnccc23)ccc2c1CCO2` [Example 15, 5-[4-[[(3R,4R)-3-Hydroxytetrahydropyran-4-yl]amino]pyrido[3,4-d]pyridazin-1-yl]-2,3-dihydrobenzofuran-4-ol], in data set [3], the 20% effect concentration (IC20) was above 10000 nM. Take `COCc1cc2c(c(O)c1-c1nnc(N[C@@H]3CCCC[C@H]3O)c3cnccc13)CCO2` [Example 8, 5-[4-[[(1R,2R)-2-Hydroxycyclohexyl]amino]pyrido[3,4-d]pyridazin-1-yl]-6-(methoxymethyl)-2,3-dihydrobenzofuran-4-ol]: half-maximal inhibition against NLRP3 [1] (IC50) required 21 nM. In the case of `O=[N+]([O-])C=Cc1ccc2c(c1)OCO2` [3,4-methylenedioxy-β-nitrostyrene], at NLRP3 [4], the “NLRP3 inhibition, potency” value is “limited potency” and the “NLRP3 inhibition, specificity” value is recorded as “nonspecific”. For “canakinumab: neutralizing IL-1β antibody”, in the data set on CAPS, the “success in the treatment of CAPS” value is “proven successful in the treatment of CAPS”. Compound `Fc1c[nH]c2cc(-c3nnc(NCC4CCOC4)c4cnccc34)ccc12` (single isomer, unassigned) [Example 4B] showed a concentration for half-maximal inhibition (IC50) on NLRP3 [1] of 211 nM. That is a sub-micromolar value. For the compound `O[C@@H]1CCCC[C@H]1Nc1nnc(-c2ccc3cc[nH]c3c2)c2ccncc12` (racemic) [Example 3, rac-(1R,2R)-2-[[1-(1H-Indol-6-yl)pyrido[3,4-d]pyridazin-4-yl]amino]cyclohexanol], the results for the half-inhibitory concentration (IC50) against NLRP3 [1] and against NLRP3 [2] were 99 nM and 108 nM, respectively. Turning to rilonacept, in the data set with CAPS, the “success in the treatment of CAPS” value was “proven successful in the treatment of CAPS”. In the case of `C[S+](C)[O-]` [dimethyl sulfoxide (DMSO), dimethyl sulfoxide], at NLRP3 [4], the “NLRP3 inhibition, potency” value is “limited potency” and the “NLRP3 inhibition, specificity” value is on record as “nonspecific”. For `C=C1C(=O)O[C@@H]2[C@H]3O[C@]3(C)CC/C=C(\C)CC[C@@H]12` [parthenolide], at NLRP3 [4], the “NLRP3 inhibition, potency” value is given as “limited potency” and the “NLRP3 inhibition, specificity” value is recorded as “nonspecific”. Regarding `Oc1c(-c2nnc(NCC3CCOC3)c3cnccc23)ccc2c1CCO2` (racemic) [Example 5, 5-[4-[[rac-(3S)-Tetrahydrofuran-3-yl]methylamino]pyrido[3,4-d]pyridazin-1-yl]-2,3-dihydrobenzofuran-4-ol], the IC50 is 38 nM against NLRP3 [1] and 37 nM on NLRP3 [2]. For the compound “anakinra: recombinant IL-I receptor antagonist”, in the data set on CAPS, the “success in the treatment of CAPS” value is on record as “proven successful in the treatment of CAPS”.

The record behind these values is patent publication US20260347355A1, “COMPOUNDS” (Hoffmann-La Roche Inc., priority 2023, published 2026).
